Series [1] concerns the target T1, Vitamin D3 receptor (Homo sapiens) (UniProt P11473).
T1 sequence (whole entry): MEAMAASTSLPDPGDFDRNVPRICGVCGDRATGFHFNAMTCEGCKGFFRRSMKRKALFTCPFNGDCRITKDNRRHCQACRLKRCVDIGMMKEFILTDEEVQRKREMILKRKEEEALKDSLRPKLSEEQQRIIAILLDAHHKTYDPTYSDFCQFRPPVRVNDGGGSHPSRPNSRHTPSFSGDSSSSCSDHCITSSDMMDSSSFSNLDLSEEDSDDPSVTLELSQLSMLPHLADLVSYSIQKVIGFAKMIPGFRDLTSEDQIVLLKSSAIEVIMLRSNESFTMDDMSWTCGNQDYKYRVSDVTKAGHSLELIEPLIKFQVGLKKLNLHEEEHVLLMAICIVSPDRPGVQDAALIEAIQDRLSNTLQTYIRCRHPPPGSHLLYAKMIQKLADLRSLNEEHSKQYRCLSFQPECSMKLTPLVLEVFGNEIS
Nature of the series: Displacement of [3H]-1,25(OH)2D3 from recombinant human VDR ligand binding domain relative to 1,25(OH)2D3.

Series [2] concerns the target T1, Vitamin D3 receptor (Homo sapiens). Kind of series: (§1) Agonist activity at VDR (unknown origin) expressed in HEK293 cells cotransfected with RXRalpha assessed as RXRalpha recruitment by two-hybrid assay. In kind it is cell-based.
Series [3] deals with T2, Vitamin D3 receptor (Homo sapiens, UniProt P11473).
T2 sequence (P11473 whole entry): T1 sequence (whole entry)
Nature of the series: Displacement of [3H]-1,25(OH)2D3 from recombinant human VDR ligand binding domain. Background: Displacement assays read how much labelled ligand stays bound in the presence of the test substance.

For series [4], the target named is T2, Vitamin D3 receptor. Kind of series: Agonist activity at VDR in human HEK293 cells assessed as transcriptional activity after 16 to 24 hrs by luciferase reporter gene assay. In kind it is cell-based. On the technique in general: Reporter assays use an easily measured gene product as a stand-in for the process of interest.
Series [5] deals with T1, Vitamin D3 receptor (Homo sapiens). Nature of the series: Partial agonist activity at VDR in human HEK293 cells assessed as transcriptional activity after 16 to 24 hrs by luciferase reporter gene assay relative to 1,25(OH)2D3. In kind it is cell-based.
Series [6] can be described thus: Drug uptake in human MG63 cells at 1 uM after 5 mins by HPLC analysis in presence of 10% FBS. In kind it is ADME, cell-based. As to conditions: mg-63, 5 min.
Series [7] in a line: Metabolic stability in human MG63 assessed as compound metabolized at 1 uM after 24 hrs by HPLC analysis. In kind it is ADME, MG-63. To be noted: MG63 cells, read-out: Drug metabolism.
Series [8] deals with T2, Vitamin D3 receptor. The description is as §1. It counts as cell-based.
Series [9] deals with T2, Vitamin D3 receptor. Nature of the series: Agonist activity at VDR (unknown origin) expressed in HEK293 cells cotransfected with SRC1 assessed as SRC1 recruitment by two-hybrid assay. It counts as cell-based.
Series [10] can be described thus: Drug uptake in human MG63 cells at 1 uM after 10 mins by HPLC analysis in presence of 10% FBS. In kind it is ADME, cell-based. To be noted: mg-63, 10 min.
The target of series [11] is T2, Vitamin D3 receptor. Kind of series: Agonist activity at VDR (unknown origin) expressed in HEK293 cells cotransfected with NCoR assessed as decrease in NCoR recruitment by two-hybrid assay. In kind it is cell-based.

SMILES strings stand for the structures. The source made the active and inactive calls. The calls are words filed in the database; no cut-off is given here.

As for `C=C1[C@H](O)CC(=C/C=C2\CCC[C@]3(C)[C@@H](C#CC#C[C@H](O)CC45CC6CC(CC(C6)C4)C5)CC[C@@H]23)C[C@H]1O`, the Activity in [1] was determined as 1%. The outcome in series [2] was Active. On Vitamin D3 receptor [3], the IC50 – broadly, the point on the concentration scale where inhibition reaches its midpoint – was determined as 35 nM. In addition, the EC50 (usually the concentration at which the effect is half-maximal) on Vitamin D3 receptor [4] worked out at 30 nM. Moreover, the Efficacy in series [5] was determined as 59%.

With `C=C1[C@H](O)CC(=C/C=C2\CCC[C@]3(C)[C@@H](C#CC#C[C@@H](O)C45CC6CC(CC(C6)C4)C5)CC[C@@H]23)C[C@H]1O`, the Activity in [1] amounted to 7%. Besides, the Drug uptake was 5.9% in series [6] and 7.7% in series [10]. The metabolised at 24 h, 1 µM in series [7] is 8%. Further, the figures for the EC50 on Vitamin D3 receptor [8], at Vitamin D3 receptor [9] and at Vitamin D3 receptor [4] were 0.7 nM, 4.5 nM and 1.5 nM, respectively. Also, the IC50 was determined as 5 nM on Vitamin D3 receptor [3] and 0.09 nM at Vitamin D3 receptor [11]. Also, in series [5], the Efficacy amounted to 86%.

For `C=C1/C(=C\C=C2/CCC[C@]3(C)[C@@H]([C@H](C)CCCC(C)(C)O)CC[C@@H]23)C[C@@H](O)C[C@@H]1O` [CALCITRIOL], the Drug uptake is 2.5% in [6] and 2.7% in [10]. In series [7], the metabolised at 24 h, 1 µM came out at 25%.

Consider `C=C1[C@H](O)CC(=C/C=C2\CCC[C@]3(C)[C@@H](C#CC#C[C@@H](O)CC45CC6CC(CC(C6)C4)C5)CC[C@@H]23)C[C@H]1O`, for which the Activity in series [1] was 1%. The result in [2] was Active. Further, the IC50 at Vitamin D3 receptor [3] was found to be 35 nM. The EC50 at Vitamin D3 receptor [4] came out at 20 nM.

Regarding `C=C1[C@H](O)CC(=C/C=C2\CCC[C@]3(C)[C@@H](C#CC#C[C@H](O)C45CC6CC(CC(C6)C4)C5)CC[C@@H]23)C[C@H]1O`, the Activity in [1] stood at 3%. Moreover, the IC50 on Vitamin D3 receptor [3] was 12.5 nM. Further, the EC50 at Vitamin D3 receptor [4] is 7 nM. In addition, the Efficacy in series [5] was determined as 41%.

These data come from ChEMBL document CHEMBL3745604, “Synthesis, Biological Activities, and X-ray Crystal Structural Analysis of 25-Hydroxy-25(or 26)-adamantyl-17-[20(22),23-diynyl]-21-norvitamin D Compounds” (J Med Chem, 2015).
